# Measurements: patent US20220259193A1, “KCNT1 INHIBITORS AND METHODS OF USE” (Praxis Precision Medicines, Inc., priority 2019, published 2022)
# pIC50: −log10 of the molar value.
# Biological target: T1, KCNT1 (KNa1.1, Slack) (Homo sapiens, UniProt Q5JUK3)
# T1 construct: expressed in transfected cells; host or cells: HEK-TREX (tetracycline-inducible HEK cell line)
# T1 sequence (Q5JUK3 1-1230): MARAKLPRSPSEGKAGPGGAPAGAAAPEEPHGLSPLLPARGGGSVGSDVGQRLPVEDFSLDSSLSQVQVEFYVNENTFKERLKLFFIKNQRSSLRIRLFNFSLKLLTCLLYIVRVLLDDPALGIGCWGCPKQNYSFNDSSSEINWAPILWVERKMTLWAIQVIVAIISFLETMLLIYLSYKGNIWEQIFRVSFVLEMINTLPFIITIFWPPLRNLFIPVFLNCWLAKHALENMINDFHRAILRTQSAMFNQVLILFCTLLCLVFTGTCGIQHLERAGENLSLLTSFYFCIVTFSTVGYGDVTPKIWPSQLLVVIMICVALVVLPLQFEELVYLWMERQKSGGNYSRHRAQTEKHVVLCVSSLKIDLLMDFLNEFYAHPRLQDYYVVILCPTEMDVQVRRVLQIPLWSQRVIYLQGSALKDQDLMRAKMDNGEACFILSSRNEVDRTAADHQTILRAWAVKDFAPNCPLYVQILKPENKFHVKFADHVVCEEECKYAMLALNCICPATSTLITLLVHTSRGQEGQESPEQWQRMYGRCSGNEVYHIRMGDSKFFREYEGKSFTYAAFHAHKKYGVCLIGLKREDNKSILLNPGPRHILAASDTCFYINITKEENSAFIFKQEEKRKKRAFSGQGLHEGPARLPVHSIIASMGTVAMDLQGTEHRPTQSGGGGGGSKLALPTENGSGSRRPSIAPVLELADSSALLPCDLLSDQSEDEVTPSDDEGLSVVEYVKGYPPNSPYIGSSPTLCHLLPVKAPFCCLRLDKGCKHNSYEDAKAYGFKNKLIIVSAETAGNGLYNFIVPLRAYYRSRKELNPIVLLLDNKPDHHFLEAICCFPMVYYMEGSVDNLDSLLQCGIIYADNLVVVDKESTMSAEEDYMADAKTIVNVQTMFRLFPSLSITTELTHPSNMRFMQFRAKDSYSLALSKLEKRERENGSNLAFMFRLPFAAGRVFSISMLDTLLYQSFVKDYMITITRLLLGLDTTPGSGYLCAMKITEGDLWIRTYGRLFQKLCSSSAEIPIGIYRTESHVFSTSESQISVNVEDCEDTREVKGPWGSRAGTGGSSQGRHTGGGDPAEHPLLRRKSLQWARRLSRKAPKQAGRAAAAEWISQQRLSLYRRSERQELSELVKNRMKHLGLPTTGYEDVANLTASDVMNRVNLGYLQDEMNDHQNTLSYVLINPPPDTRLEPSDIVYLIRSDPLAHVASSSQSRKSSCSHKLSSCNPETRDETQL
# Assay: KCNT1 patch clamp assay (SyncroPatch 384PE automated patch clamp)
# Assay type: cell-based
# Conditions: tetracycline inducible HEK-TREX cell line; perforated patch; step from −80 mV to 0 mV; room temperature; read-out: KCNT1-WT IC50
# Experimental: KCNT1—Patch Clamp Assay Inhibition of KCNT1 (KNa1.1, Slack) was evaluated using a tetracycline inducible cell line (HEK-TREX). Currents were recorded using the SyncroPatch 384PE automated, patch clamp system. Pulse generation and data collection were performed with PatchController384 V1.3.0 and DataController384 V1.2.1 (Nanion Technologies). The access resistance and apparent membrane capacitance were estimated using built-in protocols. Current were recorded in perforated patch mode (10 μM escin) from a population of cells. […] The cells were allowed to recover in the cell hotel prior to experimentation. Currents were recorded at room temperature. […] The extracellular solution was used as the wash, reference and compound delivery solution. […] Escin is made at a 5 mM stock in water, aliquoted, and stored at −20° C. The compound plate was created at 2× concentrated in the extracellular solution. The compound was diluted to 1:2 when added to the recording well. The amount of DMSO in the extracellular solution was held constant at the level used for the highest tested concentration. A holding potential of −80 mV with a 100 ms step to 0 mV was used. […] The average mean current from 3 sweeps was calculated and the % inhibition of each compound was calculated. The % Inhibition as a function of the compound concentration was fit with a Hill equation to derive IC50, slope, min and max parameters.
row,SMILES,pIC50
1,"Cn1nc(C(F)(F)F)cc1C(=O)N[C@@H](CCS(C)(=O)=O)c1nc(-c2cccc(F)c2)no1 (single isomer, unassigned) [Compound 144]",4.70 to 6.00
2,"C[C@H](NC(=O)OC(C)(C)C)c1nc(-c2ccnc(C(F)F)c2)no1 [Compound 291, tert-butyl (S)-(1-(3-(2-(difluoromethyl)pyridin-4-yl)-1,2,4-oxadiazol-5-yl)ethyl)carbamate]",4.70 to 6.00
3,"CN(C)C(=O)C[C@H](NC(=O)c1cc(C(F)(F)F)nn1C)c1nc(-c2cccc(F)c2)no1 (single isomer, unassigned) [Compound 136]",4.70 to 6.00
4,"CC(NC(=O)c1cc(C(F)(F)F)nn1C)c1nc(-c2cccc(S(N)(=O)=O)c2)no1 (stereo not drawn) [Compound 180, 1-methyl-N-(1-(3-(3-sulfamoylphenyl)-1,2,4-oxadiazol-5-yl)ethyl)-3-(trifluoromethyl)-1H-pyrazole-5-carboxamide]",≤ 4.70
5,"C[C@H](NC(=O)c1cn(C)nc1C(F)F)c1nc(-c2cccc(F)c2)no1 [Compound 188, (S)-3-(difluoromethyl)-N-(1-(3-(3-fluorophenyl)-1,2,4-oxadiazol-5-yl)ethyl)-1-methyl-1H-pyrazole-4-carboxamide]",4.70 to 6.00
6,CC(C)[C@@H](NC(=O)c1cc(C2CC2)nn1C)c1nc(-c2cccc(F)c2)no1 [Compound 62],4.70 to 6.00
7,"Cn1nc(C(F)(F)F)cc1C(=O)NC(CC(N)=O)c1nc(-c2cccc(F)c2)no1 (single isomer, unassigned) [Compound 129, N-[3-amino-1-[3-(3-fluorophenyl)-1,2,4-oxadiazol-5-yl]-3-oxo-propyl]-2-methyl-5-(trifluoromethyl)pyrazole-3-carboxamide]",≤ 4.70
8,CO[C@@H](C)[C@H](NC(=O)c1cc(C(F)(F)F)nn1C)c1nc(-c2cccc(F)c2)no1 [Compound 142],4.70 to 6.00
9,"C[C@H](NC(=O)OC(C)(C)C)c1nc(-c2ccnc(OC3CC3)c2)no1 [Compound 292, tert-butyl (S)-(1-(3-(2-cyclopropoxypyridin-4-yl)-1,2,4-oxadiazol-5-yl)ethyl)carbamate]",4.70 to 6.00
10,"C[C@H](NC(=O)OC(C)(C)C)c1nc(-c2ccnc(OC3CC(F)(F)C3)c2)no1 [Compound 293, tert-butyl (S)-(1-(3-(2-(3,3-difluorocyclobutoxy)pyridin-4-yl)-1,2,4-oxadiazol-5-yl)ethyl)carbamate]",≤ 4.70
11,Cn1nc(C(F)(F)F)cc1C(=O)NC(CC(=O)N1CC(O)C1)c1nc(-c2cccc(F)c2)no1 (stereo not drawn) [Compound 123],≤ 4.70
12,"CC(=O)Oc1cccc(-c2noc(C(C)NC(=O)c3cc(C(F)(F)F)nn3C)n2)c1 (racemic) [Compound 185, 3-(5-(1-(1-methyl-3-(trifluoromethyl)-1H-pyrazole-5-carboxamido)ethyl)-1,2,4-oxadiazol-3-yl)phenyl acetate]",4.70 to 6.00
13,"COC1CN(c2cc(-c3noc([C@H](C)NC(=O)c4cc(C(F)(F)F)nn4C)n3)ccn2)C1 [Compound 213, (S)—N-(1-(3-(2-(3-methoxyazetidin-1-yl)pyridin-4-yl)-1,2,4-oxadiazol-5-yl)ethyl)-1-methyl-3-(trifluoromethyl)-1H-pyrazole-5-carboxamide]",4.70 to 6.00
14,"C[C@@H](NC(=O)OC(C)(C)C)c1nc(-c2cccc(F)c2)no1 [Compound 282, tert-butyl (R)-(1-(3-(3-fluorophenyl)-1,2,4-oxadiazol-5-yl)ethyl)carbamate]",4.70 to 6.00

# The remaining lines, values ahead:
row,pIC50,SMILES
1,≥ 6.00,C[C@H](NC(=O)c1cc(C(F)F)nn1C1CC1)c1nc(-c2cccc(F)c2)no1 [Compound 132]
2,4.70 to 6.00,Cc1cccc(-c2noc(C(C)NC(=O)c3c(C)cnn3C(C)C)n2)c1 (stereo not drawn) [Compound 55]
3,≥ 6.00,CC[C@H](NC(=O)c1cc(C(F)F)nn1C)c1nc(-c2cccc(F)c2)no1 [Compound 120]
4,≥ 6.00,CCC(NC(=O)c1cc(C2CC2)nn1C)c1nc(-c2cccc(F)c2)no1 (stereo not drawn) [Compound 48]
5,≥ 6.00,Cc1cccc(-c2noc(C(C)NC(=O)c3cc(C)nn3C(C)C)n2)c1 (stereo not drawn) [Compound 22]
6,≥ 6.00,"C[C@H](NC(=O)c1cc(C(F)(F)F)nn1C)c1nc(-c2ccnc(C3(C)CC3)c2)no1 [Compound 240, (S)-1-methyl-N-(1-(3-(2-(1-methylcyclopropyl)pyridin-4-yl)-1,2,4-oxadiazol-5-yl)ethyl)-3-(trifluoromethyl)-1H-pyrazole-5-carboxamide]"
7,≥ 6.00,Cn1nc(C2CC2)cc1C(=O)NC1(c2nc(-c3cccc(F)c3)no2)CCCCC1 [Compound 66]
8,≥ 6.00,"C[C@@H](NC(=O)c1cc(C(F)(F)F)nn1C)c1nc(-c2ccc(F)c(F)c2)no1 (single isomer, unassigned) [Compound 76]"
9,≥ 6.00,CC[C@H](NC(=O)c1cc(C(F)(F)F)nn1CC(F)F)c1nc(-c2cccc(F)c2)no1 [Compound 111]
10,≥ 6.00,"C[C@H](NC(=O)c1cc(C(F)(F)F)nn1Cc1ccncc1)c1nc(-c2ccnc(C(F)(F)F)c2)no1 [Compound 246, (S)-1-(pyridin-4-ylmethyl)-3-(trifluoromethyl)-N-(1-(3-(2-(trifluoromethyl)pyridin-4-yl)-1,2,4-oxadiazol-5-yl)ethyl)-1H-pyrazole-5-carboxamide]"
11,≥ 6.00,"COc1cccc(-c2noc([C@H](C)NC(=O)c3cc(C(F)(F)F)nn3C)n2)c1 [Compound 196, (S)—N-(1-(3-(3-methoxyphenyl)-1,2,4-oxadiazol-5-yl)ethyl)-1-methyl-3-(trifluoromethyl)-1H-pyrazole-5-carboxamide]"
12,≥ 6.00,"CC[C@H](NC(=O)c1cc(C(F)(F)F)nn1C)c1nc(-c2ccnc(C(F)(F)F)c2)no1 [Compound 236, (S)-1-methyl-3-(trifluoromethyl)-N-(1-(3-(2-(trifluoromethyl)pyridin-4-yl)-1,2,4-oxadiazol-5-yl)propyl)-1H-pyrazole-5-carboxamide]"
13,≥ 6.00,"C[C@H](NC(=O)c1cc(C(F)(F)F)nn1C)c1nc(-c2ccnc(OCC(F)F)c2)no1 [Compound 211, (S)—N-(1-(3-(2-(2,2-difluoroethoxy)pyridin-4-yl)-1,2,4-oxadiazol-5-yl)ethyl)-1-methyl-3-(trifluoromethyl)-1H-pyrazole-5-carboxamide]"
14,≥ 6.00,"Cn1nc(C2CC2)cc1C(=O)N[C@@H](c1nc(-c2cccc(F)c2)no1)C1CC1 (single isomer, unassigned) [Compound 108]"
15,≥ 6.00,"CC(NC(=O)c1cc(C(F)(F)F)nn1C)c1nc(-c2ccnc(N3CCCCC3)c2)no1 (single isomer, unassigned) [Compound 210]"
16,≥ 6.00,"C[C@H](NC(=O)c1cc(-c2ccc(F)cc2)nn1C)c1nc(-c2ccnc(C3CC3)c2)no1 [Compound 228, (S)—N-(1-(3-(2-cyclopropylpyridin-4-yl)-1,2,4-oxadiazol-5-yl)ethyl)-3-(4-fluorophenyl)-1-methyl-1H-pyrazole-5-carboxamide]"
17,≥ 6.00,CC[C@H](NC(=O)c1cc(C(F)(F)F)nn1C(F)F)c1nc(-c2cccc(F)c2)no1 [Compound 112]
18,≥ 6.00,Cc1nn(C(C)C)cc1C(=O)N[C@@H](C)c1nc(-c2cccc(C(F)(F)F)c2)no1 [Compound 89]
19,≥ 6.00,"CC[C@H](NC(=O)c1cc(C(F)(F)F)nn1C)c1nc(-c2ccnc(C3CC3)c2)no1 [Compound 248, (S)—N-(1-(3-(2-cyclopropylpyridin-4-yl)-1,2,4-oxadiazol-5-yl)propyl)-1-methyl-3-(trifluoromethyl)-1H-pyrazole-5-carboxamide]"
